What all share (assay): DTP human tumour cell line panel, 48 h
Experiment [1] has as its system LOX IMVI melanoma.
Experiment [2] concerns K-562 leukemia.
Experiment [3] concerns IGROV1 ovarian.
Experiment [4] has as its system SNB-19 CNS.
The subject of experiment [5] is TK-10 renal.
In experiment [6] the test system is U251 CNS.
Experiment [7] concerns RPMI-8226 leukemia.
Experiment [8] relates to 786-0 renal.
For experiment [9], the system named is RXF 393 renal.
For experiment [10], the system named is DU-145 prostate.

Molecules are shown by their SMILES.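 Following 48 hours of exposure in 96-well plates, responses at five concentrations were used to interpolate endpoints linearly. The concentration for 50% growth inhibition is given as GI50. At the TGI there is no net growth.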 Bounds are passed on as bounds.

The TGI is the concentration giving total growth inhibition. A high value points to less potent growth arrest. `COc1ccc(N2C(=O)C(N3C(=O)C=CC3=O)C2C=O)cc1` (stereo not drawn): the concentration for total growth inhibition (TGI) in experiment [1], in experiment [2], in experiment [3], in [4], in experiment [5] and in experiment [6] was more than 100 µM throughout. The TGI in [7] and in [8] was more than 100 µM in each case.

As to `COc1cccc2c1[C@]1(O)C(O)CCCC21` (stereo partly drawn), the TGI in experiment [1], in [2], in [3], in experiment [4], in experiment [5] and in experiment [9] was more than 100 µM each time. In addition, the TGI in experiment [6], in experiment [7] and in experiment [8] was more than 100 µM in each case.

In general, GI50 refers to the concentration that inhibits growth by half. Turning to `c1cc2ccc1CNCCN1CCNCc3ccc(cc3)Oc3ccc(cc3)CNCCN(CCNCc3ccc(cc3)O2)CCNCc2ccc(cc2)Oc2ccc(cc2)CNCC1`, the GI50 in experiment [5] is 1.62 µM; in experiment [9] it was 1.78 µM; in [10], 1.46 µM; in experiment [6] it was 0.682 µM. Also, the TGI in experiment [5] is 3.45 µM; in experiment [9], 3.72 µM; in experiment [10], 2.83 µM; in [6] it was 1.99 µM.

`CCC1CCC2c3c([nH]c4ccccc34)C3C(=O)N(c4ccc(OC)cc4)C(=O)C3C2C1` (stereo not drawn): the TGI in [2] is 60.8 µM; in experiment [3], more than 100 µM; in experiment [4], 74.9 µM; in experiment [5], 85.8 µM; in [9], more than 100 µM; in [10], more than 100 µM. For the same compound, the TGI in [6] was 36.2 µM; in experiment [7] it was more than 100 µM; in experiment [8], more than 100 µM.

Turning to `O=C(C=P(c1ccccc1)(c1ccccc1)c1ccccc1)c1ccc(-c2ccc(F)cc2F)cc1`, the TGI in experiment [2] turned out to be 5.31 µM; in [4], 20.6 µM; in [5], 7.2 µM; in [9] it was 7.29 µM; in experiment [10], 16.2 µM; in [6], 13.9 µM. The TGI in experiment [7] is 4.43 µM; in [8] it was 13.7 µM.

Consider `CCOC(=O)C[n+]1ccc2c([nH]c3cc(OC)ccc32)c1C`, for which the concentration for total growth inhibition (TGI) in experiment [1], in experiment [2], in experiment [3], in experiment [4], in experiment [9] and in experiment [6] was more than 100 µM throughout. In addition, in [7], the TGI was more than 100 µM.

Regarding `Oc1ccc2ccccc2c1OCc1nnc(CCCCCCCCc2nnc(COc3c(O)ccc4ccccc34)o2)o1`, the total growth inhibition concentration (TGI) in [2], in [3], in [4], in experiment [5], in [9] and in experiment [10] was more than 100 µM in each case. Also, the TGI in experiment [6], in [7] and in experiment [8] was more than 100 µM throughout.

Consider `CC1OC=CC(=O)C1O` (stereo not drawn), for which the TGI in experiment [1], in experiment [2], in experiment [3], in [5], in experiment [9] and in experiment [6] was more than 100 µM each time.

With `c1ccc(-c2[nH]c(-c3ccccc3)c(-c3cnccn3)c2-c2cnccn2)cc1`, the TGI in experiment [1], in experiment [2], in experiment [3], in experiment [4], in experiment [5] and in [9] was more than 100 µM each time. Also, the TGI in experiment [6], in experiment [7] and in [8] was more than 100 µM throughout.

As for `Cn1c(=O)c2sc3cc4c(cc3c2c2ccccc21)sc1c(=O)n(C)c2ccccc2c14`, the TGI in experiment [3] is more than 100 µM; in experiment [5], more than 100 µM; in experiment [9], 45 µM; in experiment [10], more than 100 µM; in experiment [6], 43.6 µM; in experiment [7] it was more than 100 µM. This compound also came in with a TGI in [8] of more than 100 µM.

`O=C1OC2C=CC1C1(CCOC1=O)C2` (stereo not drawn): the TGI in [1], in [2], in experiment [3], in [4], in [5] and in [6] was more than 100 µM each time. In addition, the TGI in experiment [7] and in [8] was more than 100 µM in each case.

With `CCOC(=O)c1cn(C)nc1N/C(C)=C\C(=O)c1ccccc1`, the TGI in experiment [1], in experiment [2], in [3], in experiment [4], in experiment [5] and in experiment [10] was more than 100 µM each time. Further, the TGI in [6] and in [8] was more than 100 µM throughout.

For `O=S(=O)(/N=C1/SC(=Nc2ccccc2)N(c2ccccc2)/C1=N/S(=O)(=O)c1ccccc1)c1ccccc1`, the TGI was found to be 66.6 µM in experiment [2]; 46.7 µM in [3]; 96.8 µM in [4]; 91.8 µM in experiment [5]; 70.7 µM in [6]; 44.6 µM in experiment [7]. The same compound yielded a TGI in experiment [8] of 41.1 µM.

`N#Cc1c(-c2ccc(Cl)cc2)cc(-c2nc3ccccc3[nH]2)nc1N`: the TGI in [1] is 28 µM; in experiment [2] it was 54.9 µM; in [3], 22.2 µM; in experiment [4], 27.5 µM; in experiment [5] it was 27.3 µM; in [10], 20.2 µM. For the same compound, the TGI was determined as 47.1 µM in experiment [7] and 23.3 µM in experiment [8].

On to `CN(C)C=Nc1nncc2n[nH]nc12`, for which the TGI in [2], in experiment [3], in experiment [4], in experiment [5], in [9] and in [10] was more than 100 µM each time. In addition, the TGI in experiment [6], in experiment [7] and in experiment [8] was more than 100 µM in each case.

With `COc1ccc(NC(=S)NNC(=O)c2cc(-c3ccccc3)nc3ccccc23)cc1`, the TGI is 46.5 µM in experiment [2]; more than 100 µM in [3]; more than 100 µM in experiment [4]; 46.8 µM in [5]; 44.6 µM in [9]; 45.4 µM in [10]. The TGI stood at 38.5 µM in [6], 43.2 µM in [7] and 40.5 µM in [8].

Turning to `O=C(O)CCCc1ccc2c(c1)CC1(C2)Cc2ccc(CCCC(=O)O)cc2C1`, the TGI in experiment [1], in [2], in experiment [3], in experiment [5], in [9] and in experiment [6] was more than 100 µM in each case. The TGI in [7] and in experiment [8] was more than 100 µM each time.

For `CC(C)c1nccn1Cc1ccc(Cl)cc1Cl`, the TGI in experiment [1], in experiment [2], in [3], in experiment [4], in experiment [5] and in experiment [10] was more than 100 µM each time. Besides, the TGI in experiment [6] is more than 100 µM; in experiment [7], 57.8 µM; in [8], more than 100 µM.

`CC1(C)N=C(N)N=C(N)N1c1ccc(OCCCOc2ccccc2)c(Cl)c1`: the TGI in [1] is 13.7 µM; in experiment [2] it was more than 42.8 µM; in experiment [3], 7.52 µM; in experiment [4], 1.06 µM; in [9], 22.8 µM; in [6] it was 11.2 µM. This compound gave a TGI in experiment [7] of 28.9 µM.

As for `COc1ccc(N2C(=O)/C(=C/c3ccc(N(CCC#N)CCC#N)cc3)N=C2c2ccccc2)c(OC)c1`, the TGI in experiment [2] was 87 µM; in experiment [3] it was more than 100 µM; in experiment [4], more than 100 µM; in [5], more than 100 µM; in [10] it was more than 100 µM; in experiment [6] it was more than 100 µM. Besides, the TGI in experiment [7] and in experiment [8] was more than 100 µM in each case.

For the compound `C=C1C(=O)O[C@H]2[C@H]([C@H](C)CCCC(C)=O)O[C@H]([C@@]3(C)CCC(=O)O3)C[C@@H]12`, the TGI in [1] is 64.4 µM; in experiment [2] it was more than 100 µM; in experiment [3], more than 100 µM; in experiment [4] it was more than 100 µM; in experiment [5] it was 52.3 µM; in experiment [10] it was more than 100 µM. Besides, the TGI in experiment [6], in experiment [7] and in experiment [8] was more than 100 µM each time.

Regarding `CC(=O)[C@H]1CCC2[C@@H]3CC=C4C(O)C(OS(=O)(=O)O)CC[C@]4(C)C3CC[C@@]21C` (stereo partly drawn), the TGI in experiment [1], in experiment [2], in [3], in [4], in experiment [9] and in experiment [6] was more than 100 µM each time. Moreover, in [7], the TGI is more than 100 µM.

As for `COC(=O)c1c(C#C[Si](C)(C)C)c(C#C[Si](C)(C)C)c(C#C[Si](C)(C)C)c(C#C[Si](C)(C)C)c1C(=O)OC`, the TGI in [2], in [3], in [4], in [5], in experiment [9] and in experiment [10] was more than 100 µM each time. The TGI in [6], in experiment [7] and in experiment [8] was more than 100 µM each time.

As to `O=C(NCCCCNCCCNC(=O)OCc1ccccc1)OCc1ccccc1`, the TGI in experiment [2] was 80.7 µM; in experiment [3] it was 73.9 µM; in [4] it was more than 100 µM; in experiment [5] it was more than 100 µM; in [9], 66.6 µM; in [10] it was more than 100 µM. Besides, the values for the TGI in experiment [6], in experiment [7] and in experiment [8] were more than 100 µM, more than 100 µM and 55.5 µM, respectively.

With `NC1CCCCC1N.O=S(=O)([O-])CCCN1CCN(CCO)CC1.O=S(=O)([O-])CCCN1CCN(CCO)CC1.[Pt+4]`, the GI50 in experiment [1] is 5.97 µM; in experiment [2] it was 4.81 µM; in experiment [3], 8.14 µM; in experiment [4], 43.1 µM; in experiment [9], 15.9 µM; in experiment [6], 14.9 µM. In [7], the GI50 was 0.423 µM. The TGI in experiment [1] is more than 100 µM; in experiment [2], 44.8 µM; in experiment [3], more than 100 µM; in [4] it was more than 100 µM; in experiment [9], 82.5 µM; in [6], more than 100 µM. Also, in experiment [7], the TGI was 20.5 µM.

Take `O=c1c(-c2ccc(O)cc2)coc2cc(O)cc(O)c12`: the TGI in [2], in [3], in experiment [4], in experiment [5], in experiment [10] and in experiment [6] was more than 100 µM throughout. Besides, the TGI in experiment [7] and in experiment [8] was more than 100 µM in each case.

Consider `CN(CCN(C)C(=O)CCn1ccc(=O)[nH]c1=O)C(=O)CCn1ccc(=O)[nH]c1=O`, for which the TGI in experiment [1], in experiment [2], in [3], in experiment [4], in [5] and in experiment [9] was more than 100 µM each time. Moreover, the TGI in experiment [6], in experiment [7] and in [8] was more than 100 µM throughout.

For the compound `CC1(C)CC(=O)C(=CN2C(=O)CNC2=S)C(=O)C1`, the TGI in [3], in experiment [4], in experiment [5], in experiment [9], in experiment [10] and in [6] was more than 100 µM in each case. The compound also registered a TGI in experiment [8] of more than 100 µM.

Take `CC(=O)Nc1ccc(/C=C(\NC(=O)c2ccccc2)C(=O)NNS(=O)(=O)c2ccc(C)cc2)cc1`: the TGI in [1] is 38.2 µM; in experiment [2] it was more than 100 µM; in [3], more than 100 µM; in [4] it was more than 100 µM; in [5], more than 100 µM; in experiment [9], more than 100 µM. Besides, the TGI is more than 100 µM in [6] and 49 µM in [7].

Regarding `CCCCCCc1cn([C@H]2C[C@H](O)[C@@H](CO)O2)c(=O)[nH]c1=O`, the TGI in experiment [1], in experiment [2], in experiment [3], in [4], in experiment [9] and in experiment [6] was more than 100 µM in each case. The total growth inhibition concentration (TGI) in experiment [7] was more than 100 µM.

The values are drawn from PubChem BioAssay (NCI).
